“Also recorded” adds a separate entry of the source.

A short description of data set [1]: Small-animal PET, excretion pattern. It counts as in vivo, mouse. As to conditions: PET 0–2, 4–5 and 24–25 h p.i., i.v. The procedure: Time points of PET imaging were 0–2, 4–5, and 24–25 h post injection (p.i.).
The nature of data set [2]: log D7.4 shake flask method, n-octanol/PBS. It counts as physicochemical. As to conditions: n-octanol/PBS pH 7.4, shake flask; mean ± SD, three experiments. The method, then: For assessing the lipophilicity of the ^64Cu-labeled PD-L1 radioligands, distribution coefficients (log D7.4 values) were determined using the shake flask method between n-octanol and PBS buffer (pH 7.4).
n-Octanol/water distribution coefficients were determined by the shake-flask method. The experiments for each radioligand was performed in triplicate. 30 μL of the reaction mixture was added to a 1.5 mL Eppendorf tube, which contained 570 μL of PBS (pH 7.4) and 600 μL n-octanol. After shaking at room temperature at 1500 rpm for 5 min, the mixture was centrifugated. An aliquot for each phase was carefully withdrawn, and the count rates were measured using a γ-counter (ISOMED2160 sodium iodide crystal detector). The mean values were calculated, corrected for the background activity, and the log D7.4 value was calculated with following formula [drawing 1]

Data set [3] is described as follows: Metabolite analysis in vivo. The arrangement: species or system mouse. As to conditions: 4 h postinjection.

On to `Cc1c(COc2cc(OCc3cncc(S(C)(=O)=O)c3)c(CN[C@@H](CS(=O)(=O)O)C(=O)NCCP(=O)(O)O)cc2Cl)cccc1-c1cccc(OCc2cn(CCCN3CCN(C(=O)CC[C@H](C(=O)O)N4CCN(CC(=O)O)CCN(CC(=O)O)CC4)CC3)nn2)c1C.[64Cu+2]` [[^64Cu]Cu-4], for which the “excretion / clearance pattern (PET)” value in data set [1] is given as “almost exclusive hepatobiliary elimination; also recorded: primarily hepatobiliary clearance”. Besides, the “log D7.4” value in data set [2] is “–3.07 ± 0.02”.
With `Cc1c(COc2cc(OCc3cncc(C#N)c3)c(CN[C@@H](CS(=O)(=O)O)C(=O)NCCS(=O)(=O)O)cc2Cl)cccc1-c1cccc(OCc2cn(CCCN3CCN(C(=O)[C@H](CS(=O)(=O)O)NC(=O)CC[C@H](C(=O)O)N4CCN(CC(=O)O)CCN(CC(=O)O)CC4)CC3)nn2)c1C.[64Cu+2]` [[^64Cu]Cu-1], in data set [1], the “excretion / clearance pattern (PET)” value is “mixed hepatobiliary and renal clearance”.
Consider `Cc1c(COc2cc(OCc3cncc(S(C)(=O)=O)c3)c(CN[C@@H](CS(=O)(=O)O)C(=O)NCCP(=O)(O)O)cc2Cl)cccc1-c1cccc(OCc2cn(CCCN3CCN(C(=O)[C@H](CP(=O)(O)O)NC(=O)CC[C@H](C(=O)O)N4CCN(CC(=O)O)CCN(CC(=O)O)CC4)CC3)nn2)c1C.[64Cu+2]` [[^64Cu]Cu-6], for which the “log D7.4” value in data set [2] is “–4.28 ± 0.08”.
For `Cc1c(COc2cc(OCc3cncc(S(C)(=O)=O)c3)c(CN[C@@H](CS(=O)(=O)O)C(=O)NCCS(=O)(=O)O)cc2Cl)cccc1-c1cccc(OCc2cn(CCCN3CCN(C(=O)[C@H](CS(=O)(=O)O)NC(=O)CC[C@H](C(=O)O)N4CCN(CC(=O)O)CCN(CC(=O)O)CC4)CC3)nn2)c1C.[64Cu+2]` [[^64Cu]Cu-3], in data set [1], the “excretion / clearance pattern (PET)” value is “predominantly a fast renal and lower hepatobiliary clearance”. In data set [3], the “stability in circulation (metabolite analysis)” value is given as “overall stability of the compound in circulation”.

Source of the values: publication PMC10726354, “Design, Synthesis, and Biological Evaluation of Small-Molecule-Based Radioligands with Improved Pharmacokinetic Properties for Imaging of Programmed Death Ligand 1” (Journal of Medicinal Chemistry, 2023).
